Experimental data from patent EP1145714A1, “DRUGS” (Takeda Chemical Industries, Ltd., priority 1998, dated 2000).

Key:
[1] = test system: methotrexate-induced delayed vomiting in dogs; test: Methotrexate-induced delayed vomiting in dogs, oral dosing; assay type: in vivo, beagle dogs; conditions: methotrexate 2.5 mg/kg i.v.
Procedure: 3 or 4 beagle dogs (8.3 to 12.6 kg), male or female per one group were used. Methotrexate was intravenously administered at 2.5 mg/ml/kg. 8, 24 and 48 hours after methotrexate dosing, predetermined doses of the compound No. 3, ondansetron and 0.5% methyl cellulose solution were orally given. The compound No. 3 and 0.5 % methyl cellulose solution were dosed 30 minutes after a small amount of a feed was given to the animals, while ondansetron was dosed to the animals under fasting. The frequency of vomiting was counted in number, up to 72 hours after methotrexate dosing. The compound No. 3 was suspended in 0.5 % methyl cellulose solution and was then orally dosed at a ratio of 0.25 to 1 ml per 1 kg body weight. A predetermined volume of an ondansetron injection at a concentration of 0.2 w/v % was orally dosed. Additionally, 0.5 % methyl cellulose solution was orally given at a ratio of 1 ml per 1 kg body weight. The data relating to the frequency of vomiting, the latency and the time period from the occurrence of vomiting to the termination thereof were statistically analyzed by the Dunnett test, with reference to the difference from the control group.
The delayed vomiting suppression ratio and the suppression ratio of the total frequency of vomiting were calculated by the following formula.

[2] = test system: vomiting induced by morphine in ferrets; test: Vomiting induced by morphine in ferrets, oral dosing; assay type: in vivo; conditions: 3 mg/kg p.o., morphine 0.3 mg/kg subcutaneous
Procedure: Male 6 or 7 ferrets (1.6 to 2.0 kg) per one group were used. Morphine was subcutaneously administered at0.3 mg/0.3 ml/kg. 2.5 hours before morphine dosing, a small amount of a feed was given to the animals. 30 minutes thereafter, predetermined doses of the compound No. 3 were orally given. To a control animal group under no fasting was orally given a predetermined volume of 0.5 % methyl cellulose solution. A predetermined volume of ondansetron was orally given to the animals under fasting. To a control animal group of ondansetron under fasting was orally given a predetermined volume of physiological saline. The frequency of vomiting was counted up to 30 minutes after morphine dosing. The compound No. 3 was suspended in 0.5 % methyl cellulose solution and was then orally dosed at a ratio of 1 ml per 1 kg body weight. An injection of ondansetron at a concentration of 0.2 w/v % was orally dosed. Additionally, 0.5 % methyl cellulose solution was orally given at a ratio of 1 ml per 1 kg body weight, while physiological saline was orally given at a ratio of 1 ml per 1 kg body weight. The data relating to the frequency of vomiting, the latency and the time period from the occurrence of vomiting to the termination thereof were statistically analyzed by the Dunnett test or t test, with reference to the difference from the control group.
The retching suppression ratio and vomiting suppression ratio were calculated by the following formula. [Frequency of retching or vomiting in control] - [Frequency of retching or vomiting in animals dosed with compound No. 3] / [Frequency of retching or vomiting in control] x 100 (%) [formula]

[3] = test system: vomiting induced by a central emetic agent apomorphine in dogs; test: Vomiting induced by apomorphine in dogs; assay type: in vivo, beagle dogs; conditions: 10 mg/kg p.o., apomorphine 0.1 mg/kg subcutaneous
Procedure: 3 male or female beagle dogs (7.8 to 15.9 kg) per one group were used. Apomorphine was subcutaneously given at 0.1 mg/ml/kg. 2.5 hours prior to apomorphine administration, a small amount of a feed was given to the animals. 30 minutes thereafter, predetermined doses of the compound No. 3 were orally given. Similarly, 0.5 % methyl cellulose solution was orally given to a control animal group under no fasting. A predetermined dose of ondansetron was given orally to the animals under fasting. The frequency of vomiting was counted in number, up to one hour after apomorphine administration. The compound No. 3 was dissolved in 0.5 % methyl cellulose solution, for oral dosing at a ratio of 1 ml per 1 kg • body weight. An injection of ondansetron at a concentration of 0.2% w/v was orally given. Additionally, 0.5 % methyl cellulose solution was orally given at a ratio of 1 ml per 1 kg • body weight. The data relating to the frequency of vomiting, the latency and the time period from the occurrence of vomiting to the termination thereof were statistically analyzed by the Dunnett test, with reference to the difference from the control group.
The vomiting suppression ratio was calculated by the following formula.

Compound: Cc1nccn1CC1CCc2c(c3ccccc3n2C)C1=O (stereo not shown) [Ondansetron, ondansetron, reference compound]
- Delayed vomiting suppression ratio (24 to 72 hours after MIX dosing) ([1]; 10 mg/kg p.o. once daily): 21 % NS
- Suppression ratio of total frequency of vomiting (0 to 72 hours after MTX dosing) ([1]; 10 mg/kg p.o. once daily): 24 % NS
- Duration (in hour; mean ± SD) ([1]; 10 mg/kg p.o.): 27.8 ± 2.7 h
- Frequency of vomiting (mean ± SD), Day 0 (0-24 hours) ([1]; 10 mg/kg p.o.): 0 b
- Frequency of vomiting (mean ± SD), Days 1 + 2 (24 - 72 hours) ([1]; 10 mg/kg p.o.): 9.3 ± 2.3
- Latency (in hour; mean ± SD) ([1]; 10 mg/kg p.o.): 28.6 ± 3.9 h
- Frequency of vomiting (mean ± SD), Total frequency ([1]; 10 mg/kg p.o., 72 hours): 9.3 ± 2.3
- Number of dogs with vomiting/number of tested dogs ([1]; 10 mg/kg p.o., 72 hours): 3/3
- Acute vomiting suppression ratio [2]: 0 % NS
- Effect on retching and vomiting (in words) [2]: did not suppress
- Pseudo-vomiting suppression ratio [2]: 12 % NS
- A: Number of ferrets with retching/number of tested ferrets ([2]; under fasting, 30 minutes): 5/6
- B: Frequency of retching (mean ± SD) ([2]; under fasting, 30 minutes): 17.2 ± 6.4
- C: Time period until first retching (minute; mean ± SD) ([2]; under fasting, 30 minutes): 8.8 ± 4.3 min
- D: Duration of retching (minute; mean ± SD) ([2]; under fasting, 30 minutes): 5.0 ± 2.3 min
- E: Number of ferrets with vomiting/number of tested ferrets ([2]; under fasting, 30 minutes): 5/6
- F: Frequency of vomiting (mean ± SD) ([2]; under fasting, 30 minutes): 2.3 ± 1.2
- G: Time period until first vomiting (minute; mean ± SD) ([2]; under fasting, 30 minutes): 9.2 ± 4.2 min
- H: Duration of vomiting (minute; mean ± SD) ([2]; under fasting, 30 minutes): 3.7 ± 2.6 min
- Effect on vomiting (in words) [3]: did not suppress
- Vomiting suppression ratio [3]: 0 % NS
- B: Frequency of vomiting (mean ± SD) ([3]; one hour): 13.7 ± 2.4
- C: Time period until first vomiting (minute; mean ± SD) ([3]; one hour): 2.4 ± 0.6 min
- D: Duration of vomiting (minute; mean ± SD) ([3]; one hour): 22.8 ± 3.6 min
- Number of dogs with vomiting/number of tested dogs ([3]; one hour): 3/3
